Reference: US20200261440A1, “ZINC IONOPHORES AND USES THEREOF” (THE UNIVERSITY OF QUEENSLAND, priority 2017, published 2020)
In brackets after ≈: the same amount, converted by molar mass. Entries after “also recorded” stand apart in the source; their conditions may differ. Like-named read-outs stand apart in the source and are kept apart here.

Tests used:
[1] = tested on: Klebsiella pneumoniae strain MS6771; experiment: MIC by broth microdilution (CLSI); assay type: cell-based; details: Klebsiella pneumoniae, read-out: MIC
[2] = tested on: Methicillin-resistant Staphylococcus aureus (MRSA) strain USA300; experiment: MIC by broth microdilution (CLSI); details: for MIC: Staphylococcus aureus; for antibiotic sensitivity of resistant strain: addition of sub-inhibitory PBT2+zinc(II) ions
Description: GAS HKU16, MRSA USA300, VRE RBWH1, Klebsiella pneumoniae strain MS6771, E. coli strain MS8345 and Streptococcus pneumoniae strain 23F were grown in Todd-Hewitt broth (THB) or agar with 1% yeast extract (THY) [Todd, E. W. & Hewitt, L. F. A new culture medium for the production of antigenic streptococcal haemolysin. […] Bacteria were routinely grown at 37° C. in ambient air.
MICs were determined by broth microdilution in accordance to CLSI guidelines (“Methods for Dilution Antimicrobial Susceptibility Tests for Bacteria That Grow Aerobically”, Clinical and Laboratory Standards Institute) [Clinical and Laboratory Standards Institute. […] For MRSA, VRE, Klebsiella pneumoniae and E. coli the assays were performed in MHB, and for GAS and Streptococcus pneumoniae MHB+2.5% lysed horse blood (LHB) was used. The bacterial inoculum was prepared by direct colony suspension aiming for 2-8×10^5 colony forming units (CFU)/mL bacteria per well. Antibiotics/compounds were serially diluted two-fold across the 96-well plate, the last column contained no antibiotics/compounds. The inoculum was added to the plate containing antibiotic/compound and incubated for 16-24 h at 35+/−2° C. […] MIC assays were carried out in biological triplicates.
Using Clinical and Laboratory Standards Institute guidelines for antimicrobial sensitivity testing [Clinical and Laboratory Standards Institute.

[3] = tested on: Vancomycin-resistant Enterococci (VRE) clinical isolate RBWH1; experiment: MIC by broth microdilution (CLSI); assay type: cell-based, Enterococcus; details: Enterococcus, VRE, VRE RBWH1; CQ: 2.5 μM, Zinc: 32 μM; read-out: MIC
Description: (§1) J. Path. Bact. […] Proc. Soc.
(§2) MIC assays were carried out in biological triplicates.
(§3) M100 Performance Standards for Antimicrobial Susceptibility Testing, 27th Edition.

[4] = tested on: Streptococcus pneumoniae 23F; experiment: MIC by broth microdilution (CLSI); assay type: cell-based; details: Streptococcus pneumoniae, 23F, read-out: MIC
[5] = tested on: GAS strain HKU16 (Streptococcus pyogenes strain HKU16); experiment: microbe, parasite or virus in culture; assay type: cell-based; details: GAS; RA-HQ-12: 3.5 μM
Description: as §1, §2, §3

[6] = MS6771, Klebsiella pneumoniae, CQ: 0 μM, Zinc: 0 μM
[7] = MS6771, Klebsiella pneumoniae, CQ: 64 μM, Zinc: 256 μM
[8] = MS6771, Klebsiella pneumoniae, CQ: 64 μM
[9] = MS6771, Klebsiella pneumoniae, PBT2: 0 μM, Zinc: 0 μM
[10] = MS6771, Klebsiella pneumoniae, PBT2: 64 μM, Zinc: 256 μM
[11] = MS6771, Klebsiella pneumoniae, PBT2: 64 μM
[12] = MS6771, Klebsiella pneumoniae, Zinc: 256 μM (CQ panel)
[13] = MS6771, Klebsiella pneumoniae, Zinc: 256 μM (PBT2 panel)
[14] = MRSA|USA300, MRSA USA300, CQ: 0.75 μM, Zinc: 16 μM, +2% NaCl
[15] = MRSA|USA300, MRSA USA300, PBT2: 2 μM, Zinc: 25 μM, +2% NaCl

MIC [1, 6] [µg/mL]	MIC [1, 7] [µg/mL]	MIC [1, 8] [µg/mL]	MIC [1, 9] [µg/mL]	MIC [1, 10] [µg/mL]	MIC [1, 11] [µg/mL]	MIC [1, 12] [µg/mL]	MIC [1, 13] [µg/mL]	SMILES	also measured
64 (≈ 167 µM)	8 to 16 (≈ 20.9 to 41.7 µM)	8 to 16 (≈ 20.9 to 41.7 µM)	64 (≈ 167 µM)	16 (≈ 41.7 µM)	32 (≈ 83.4 µM)	16 to 32 (≈ 41.7 to 83.4 µM)	16 to 32 (≈ 41.7 to 83.4 µM)	C[C@@H](O)[C@H]1C(=O)N2C(C(=O)O)=C(S[C@@H]3CN[C@H](C(=O)N(C)C)C3)[C@H](C)[C@H]12 [Meropenem, meropenem]	–
8 to 16 (≈ 18 to 36 µM)	8 (≈ 18 µM)	8 (≈ 18 µM)	8 to 16 (≈ 18 to 36 µM)	4 (≈ 9 µM)	4 to 8 (≈ 9 to 18 µM)	8 to 16 (≈ 18 to 36 µM)	8 to 16 (≈ 18 to 36 µM)	C[C@H]1c2cccc(O)c2C(=O)C2=C(O)[C@]3(O)C(=O)C(C(N)=O)=C(O)[C@@H](N(C)C)[C@@H]3[C@@H](O)[C@@H]21 [Doxycycline, doxycycline]	–
> 128	> 128	> 128	> 128	> 128	> 128	> 128	> 128	COc1cc(Cc2cnc(N)nc2N)cc(OC)c1OC [Trimethoprim, trimethoprim]	–
–	–	–	–	–	–	–	–	COc1cccc(OC)c1C(=O)N[C@@H]1C(=O)N2[C@@H]1SC(C)(C)[C@@H]2C(=O)O [Methicillin, methicillin]	MIC ([2]; MRSA USA300, CQ: 0 μM, Zinc: 0 μM, +2% NaCl): > 128 µg/mL; MIC ([2]; MRSA USA300, CQ: 0.75 μM, +2% NaCl): > 128 µg/mL; MIC ([2]; MRSA USA300, PBT2: 2 μM, +2% NaCl): > 128 µg/mL; MIC ([2]; MRSA USA300, Zinc: 16 μM, +2% NaCl): > 128 µg/mL; MIC ([2]; MRSA USA300, Zinc: 25 μM, +2% NaCl): > 128 µg/mL; MIC [2, 14]: > 128 µg/mL; MIC ([2]; MRSA|USA300, MRSA USA300, PBT2: 0 μM, Zinc: 0 μM, +2% NaCl): > 128 µg/mL; MIC [2, 15]: > 128 µg/mL
–	–	–	–	–	–	–	–	CC[C@H]1OC(=O)[C@H](C)[C@@H](O[C@H]2C[C@@](C)(OC)[C@@H](O)[C@H](C)O2)[C@H](C)[C@@H](O[C@@H]2O[C@H](C)C[C@H](N(C)C)[C@H]2O)[C@](C)(O)C[C@@H](C)C(=O)[C@H](C)[C@@H](O)[C@]1(C)O [Erythromycin, erythromycin]	antibiotic sensitivity of resistant strain ([2]; MRSA USA300): became sensitive; also recorded: reversed; MIC ([2]; MRSA USA300, CQ: 0 μM, Zinc: 0 μM): 64 µg/mL (≈ 87.2 µM); MIC ([2]; MRSA USA300, CQ: 1 μM): 64 µg/mL (≈ 87.2 µM); MIC ([2]; MRSA USA300, CQ: 1 μM, Zinc: 32 μM): 1 µg/mL (≈ 1.36 µM); MIC ([2]; MRSA USA300, PBT2: 0 μM, Zinc: 0 μM): 64 µg/mL (≈ 87.2 µM); MIC ([2]; MRSA USA300, PBT2: 2 μM): 32 µg/mL (≈ 43.6 µM); MIC ([2]; MRSA USA300, PBT2: 2 μM, Zinc: 50 μM): 0.5 µg/mL (≈ 0.681 µM); MIC ([2]; MRSA USA300, Zinc: 32 μM): 64 µg/mL (≈ 87.2 µM); MIC ([2]; MRSA USA300, Zinc: 50 μM): 64 µg/mL (≈ 87.2 µM); MIC ([2]; MRSA|USA300, MRSA, RA-HQ-12: 3.5 μM, oxacillin with 2% NaCl): 64 µg/mL (≈ 87.2 µM)
–	–	–	–	–	–	–	–	Cc1onc(-c2ccccc2)c1C(=O)N[C@@H]1C(=O)N2[C@@H]1SC(C)(C)[C@@H]2C(=O)O [Oxacillin, oxacillin]	MIC [5]: 0.125 µg/mL (≈ 0.311 µM); antibiotic sensitivity of resistant strain ([2]; MRSA USA300): became sensitive; MIC [2, 14]: 0.5 to 1 µg/mL (≈ 1.25 to 2.49 µM); MIC [2, 15]: 1 to 2 µg/mL (≈ 2.49 to 4.98 µM)

SMILES	MIC [1, 6] [µg/mL]	MIC [1, 7] [µg/mL]	MIC [1, 8] [µg/mL]	MIC [1, 9] [µg/mL]	MIC [1, 10] [µg/mL]	MIC [1, 11] [µg/mL]	MIC [1, 12] [µg/mL]	MIC [1, 13] [µg/mL]	also measured
CN(C)[C@@H]1C(O)=C(C(N)=O)C(=O)[C@@]2(O)C(O)=C3C(=O)c4c(O)cccc4[C@@](C)(O)[C@H]3C[C@@H]12 [Tetracycline, tetracycline]	32 to 64 (≈ 72 to 144 µM)	4 to 8 (≈ 9 to 18 µM)	16 (≈ 36 µM)	16 to 32 (≈ 36 to 72 µM)	4 (≈ 9 µM)	8 (≈ 18 µM)	8 (≈ 18 µM)	8 (≈ 18 µM)	MIC [3]: 1 to 2 µg/mL (≈ 2.25 to 4.5 µM); MIC ([2]; MRSA|USA300, MRSA, RA-HQ-12: 0 μM, Zn: 0 μM, oxacillin with 2% NaCl): 0.5 µg/mL (≈ 1.13 µM); MIC ([1]; MS6771, K. pneumoniae, RA-HQ-12: 0 μM, Zn: 0 μM): 32 µg/mL (≈ 72 µM); MIC ([1]; MS6771, K. pneumoniae, RA-HQ-12: 16 μM, Zn: 64 μM): 32 µg/mL (≈ 72 µM); MIC ([1]; MS6771, K. pneumoniae, RA-HQ-12: 16 μM): 32 µg/mL (≈ 72 µM); MIC ([1]; MS6771, K. pneumoniae, Zn: 64 μM): 32 µg/mL (≈ 72 µM); MIC ([4]; PBT2: 0 μM, Zinc: 0 μM): 32 µg/mL (≈ 72 µM); MIC ([4]; PBT2: 8 μM, Zinc: 32 μM): 1 µg/mL (≈ 2.25 µM); MIC ([4]; PBT2: 8 μM): 32 µg/mL (≈ 72 µM); MIC ([4]; Zinc: 32 μM): 32 µg/mL (≈ 72 µM)
